Several values for one entry are separate records, joined by “and”; a condition that tells them apart may be missing. Equal entries are not always repeated. Entries after “also recorded” stand apart in the source; their conditions may differ. Where two headings read alike, the source gives them in different places.
What was measured:
w794 DNA = experiment: DNA alkylation studies, cell-free (thermally induced strand cleavage, PAGE autoradiography); type: biochemical; details: for DNA alkylation: no deliberate activation
Method: DNA-agent incubation at 23° C. for 2 hours (h), removal of unbound agent by EtOH precipitation, and 30 minute thermolysis (100° C.) followed by 8% denaturing PAGE and autoradiography. Lane 1, control DNA; lanes 2-5, Sanger G, C, A, and T sequencing reactions; lane 6, Compound (+)-4 (1×10^−5 M); lane 7, Compound (+)-7 (1×10^−5 M); lanes 8-9, Compound (+)-7 (1×10^−5 M) incubated at 37° C. with 1 M L-glutathione for 12 hours and 24 hours.
DNA-agent incubation at 23° C. for 2 hours (h), removal of unbound agent by EtOH precipitation, and 30 minutes thermolysis (100° C.) followed by 8% denaturing PAGE and autoradiography.
Lane 1, control DNA; lanes 2-5, Sanger G, C, A, and T sequencing reactions; lanes 6-8, Compound (+)-4 (1×10^−4 to 1×10^−6 M); lanes 9-11, Compound (+)-6 (1×10^−2 to 1×10^−4 M).
Lane 1, control DNA; lanes 2-5, Sanger G, C, A, and T sequencing reactions; lanes 6-11, Compound (+)-4 (1×10^−4M, t=2, 4, 6, 8, 24, 48 hours); lanes 12-15, Compound (+)-6 (1×10^−2M, t=2, 4, 6, 8 hours).
Lane 1, control DNA; lanes 2-5, Sanger G, C, A, and T sequencing reactions; lane 6, Compound (+)-4 (1×10^−4 M); lanes 7-9, Compound (±)-19 (1×10^−3 to 1×10^−5 M).
See Boger et al., Tetrahedron 1991, 47:2661-2682 for full details of the DNA alkylation assay. The DNA alkylation reactions were conducted at […] with 5′-^32P-end-labeled w794 DNA, which contains a single major alkylation site for the natural products.

[1] = system: L1210 (ATCC CCL-219) mouse lymphocytic leukemia cells; experiment: Cell growth inhibition assay (phosphatase readout); type: cell-based
Method: Compounds were tested for their cell growth inhibition of L1210 (ATCC CCL-219) mouse lymphocytic leukemia cells. A population of cells (>1×10^6 cells/mL as determined with a hemocytometer) was diluted with an appropriate amount of Dulbecco-modified Eagle Medium (DMEM, Gibco) containing 10% fetal bovine serum (FBS, Gibco) to a final concentration of 30,000 cells/mL. To each well of a 96-well plate (Corning® Costar®), 100 μL of the cell-media solution was added with a multichannel pipette. The cultures were incubated at 37° C. in an atmosphere of 5% CO2 and 95% humidified air for 24 hours. The test compounds were added to the plate as follows: test substances were diluted in DMSO to a concentration of 1 mM and 10-fold serial dilutions were performed on a separate 96-well plate. Fresh culture medium (100 μL) was added to each well of cells to constitute 200 μL of medium per well followed by 2 μL of each test agent. Compounds were tested in duplicate (≧2 times) at six concentrations between 0-100 nM or 0-1000 nM. Following addition, cultures were incubated for an additional 72 hours.
A phosphatase assay was used to establish the IC50 values as follows: the media in each cell was removed and 100 μL of phosphatase solution (100 mg phosphatase substrate in 30 mL 0.1 M NaOAc, pH 5.5, 0.1% Triton® X-100 buffer) was added to each well. The plates were incubated at 37° C. for 5 minutes. After the given incubation time, 50 μL of 0.1 N NaOH was added to each well and the absorption at 405 nm was determined using a 96 well plate reader. As the absorption is directly proportional to the number of living cells, the IC50 values were calculated and the reported values represent of the average of ≧4 determinations (SD±10%).

[2] = system: L1210 murine leukemia cells; experiment: In vivo antitumor activity, L1210 implanted ip in B6D2F1 mice; set-up: species or system mouse
Method: [Wolfe et al., J. Med. Chem. 2012, 55:5878-5886.] Therefore, the preliminary evaluation of the in vivo antitumor activity of the cyclic N—O pro-drugs was assessed with Compound (+)-6 and was conducted alongside seco-CBI-indole2 (Compound 4) in an antitumor model consisting of L1210 murine leukemia cells implanted ip in B6D2F1 mice traditionally used to initially compare new duocarmycin derivatives (Table 3, below).
B6D2F1 mice were injected intraperitoneally (i.p.) with syngeneic L1210 cells (1×10^6) on day 0. Ten mice were randomly assigned to control vehicle or treatment groups for Compounds (+)-4 and (+)-6 at doses of 60, 100, 250, and 500 μg/kg/inj for Compounds (+)-4 or 60, 200, 500, 1000, and 2500 μg/kg/inj for Compounds (+)-6. Compounds (+)-4 and (+)-6 were formulated in 100% DMSO. Both compounds were injected i.p. on days 1, 5, and 9. Following injection of tumor cells, animals were monitored daily and weighed two times per week. Percent survival (T/C) for treated and control groups were determined by dividing the total survival days for each treatment group by the total survival days for the control group and multiplying×100. All animal studies were carried out in the animal facilities of The University of Kansas Medical Center with strict adherence to the guidelines of the IACUC Animal Welfare Committee of KUMC (IACUC approval #2009-1837).

[3] = system: L1210 murine leukemia cells; details: literature dose range; cited from earlier work
[4] = Stability to basic conditions (NaHCO3); type: physicochemical; details: 23° C.
physchem = details: buffer
[5] = Mus musculus, L1210, 72 h, read-out: IC50 L1210 natural, natural enantiomer, 72 hours
[6] = 500 μg/kg i.p. on days 1, 5 and 9
[7] = 1000 μg/kg i.p. on days 1, 5 and 9
[8] = 2500 μg/kg i.p. on days 1, 5 and 9
[9] = 60 μg/kg i.p. on days 1, 5 and 9
[10] = Mus musculus, L1210, 72 h, read-out: IC50 L1210 unnatural, unnatural enantiomer, 72 hours
[11] = 100 μg/kg i.p. on days 1, 5 and 9
[12] = 250 μg/kg i.p. on days 1, 5 and 9

For CN1Oc2cc3c(c4cccc(c24)C1=O)[C@H](CCl)CN3C(=O)c1cc2cc(NC(=O)c3cc4ccccc4[nH]3)ccc2[nH]1 [Compound (+)-6, N-(2-(10-(Chloromethyl)-5-methyl-4-oxo-5,8,9,10-tetrahydro-4H-pyrrolo[3′,2′:5,6]naphtho[1,8-de][1,2]oxazine-8-carbonyl)-1H-indol-5-yl)-1H-indole-2-carboxamide], the DNA alkylation (w794 DNA) was “incapable of alkylating DNA”, the “difference in potency between Compound (+)-6 and Compound (+)-7” value ([1]; L1210) was 3 fold and the IC50 [1, 5] was 0.99 nM. The IC50 ([1]; read-out: IC50 L1210 natural, natural enantiomer, 72 hours) was roughly 1 nM, the “T/C = Treated/Control (MSP) × 100” value ([2]; 200 μg/kg i.p. on days 1, 5 and 9) was 386 and the “Surviving Mice (live animals after 366 days)” value (“Surviving Mice” below) [2, 6] was 4/10. For the same compound, the “T/C = Treated/Control (MSP) × 100” value [2, 6] was greater than 1142, the “Surviving Mice” value [2, 7] was 4/10 and the “T/C = Treated/Control (MSP) × 100” value [2, 7] was greater than 1130. The “Surviving Mice” value [2, 8] was 6/10, the “T/C = Treated/Control (MSP) × 100” value [2, 8] was greater than 1500 and the “delayed toxicity in long term survivors” value ([2]; 366 days (1 year)) was “no evidence of a delayed toxicity”. The “tolerance at the injection sites” value ([2]; i.p. administration, versus free drug) was “tolerated at the injection sites of the animals much better than the free drug”, the “dosing permitted over that of the free drug” value ([2]; versus free drug) was no less than 40 fold and the “in vivo potency relative to the free drug” value ([2]; versus free drug) was no more than 3 fold.

For O=C(Nc1ccc2[nH]c(C(=O)N3C[C@@H](CCl)c4c3cc(O)c3ccccc43)cc2c1)c1cc2ccccc2[nH]1 [Compound (+)-4, seco-CBI-indole2, reference compound], the “Surviving Mice” value [2, 9] was 1/10, the “T/C = Treated/Control (MSP) × 100” value [2, 9] was > 284 and 284 and the “toxicity in tumor-bearing mice” value ([2]; all higher doses (100-500 μg/kg)) was “proved toxic leading to premature death of the animals due to drug toxicity”. The “toxicity in tumor-bearing mice” value ([2]; dosing at 60 to 500 μg/kg) was “premature death” and the “therapeutic window (dose range)” value [3] was 0.03 to 0.1 mg/kg.

In the case of CN1Oc2cc3c(c4cccc(c24)C1=O)C(CCl)CN3C(=O)OC(C)(C)C (stereo not drawn) [Compound 12, tert-Butyl 10-(Chloromethyl)-5-methyl-4-oxo-9,10-dihydro-4H-pyrrolo[3′,2′:5,6]naphtho[1,8-de][1,2]oxazine-8(5H)-carboxylate], the “time unreactive toward NaHCO3” value ([4]; NaHCO3 in THF, MeOH, DMF/H2O) is reported as “more than 5 days”, the IC50 [1, 5] is reported as 850 nM and the IC50 [1, 10] is reported as greater than 1000 nM. For the same compound, the half-life (physchem) was 24 h.

Compound COC(=O)c1cc2c([nH]1)C(=O)C=C1N(C(=O)c3cc4cc(OC)c(OC)c(OC)c4[nH]3)C[C@H]3CC123 (stereo partly drawn) [Compound 1, Duocarmycin SA, reference compound] has an IC50 [1, 5] of 0.01 nM and an IC50 [1, 10] of 0.1 nM.

With CC(C)(C)OC(=O)N1CC(CCl)c2c1cc1c3c(cccc23)C(=O)NO1 (stereo not drawn) [Compound 15, tert-Butyl 10-(Chloromethyl)-4-oxo-9,10-dihydro-4H-pyrrolo[3′,2′:5,6]naphtho[1,8-de][1,2]oxazine-8(5H)-carboxylate] the half-life ([4]; NaHCO3 in MeOH, read-out: t1/2 with NaHCO3 (converted)) was 70 h, the “stability to NaHCO3” value ([4]; NaHCO3 in THF/H2O) was “stable” and the IC50 [1, 5] was 650 nM. The IC50 [1, 10] was greater than 1000 nM and the half-life (physchem) was 2 h.

In the case of O=C(Nc1ccc2[nH]c(C(=O)N3C[C@@H](CCl)c4c3cc(O)c3ccccc43)cc2c1)c1cc2ccccc2[nH]1 [Compound 4, seco-CBI-indole2, reference compound], the IC50 ([1]; Mus musculus, L1210, natural enantiomer, 72 hours, read-out: IC50 L1210 natural) is reported as 0.03 nM, the IC50 ([1]; Mus musculus, L1210, unnatural enantiomer, 72 hours, read-out: IC50 L1210 unnatural) is reported as 0.9 nM and the “MSP (Mean Survival Period)” value [2, 9] is reported as greater than 50 days. For the same compound, the “Surviving Mice” value [2, 9] was 1/10, the “T/C = Treated/Control (MSP) × 100” value [2, 9] was greater than 284 and the “MSP (Mean Survival Period)” value [2, 11] was 6.4 days. The “Surviving Mice” value [2, 11] was 0/10, the “T/C = Treated/Control (MSP) × 100” value [2, 11] was 36 and the “MSP (Mean Survival Period)” value [2, 12] was 3.7 days. For the same compound, the “Surviving Mice” value [2, 12] was 0/10, the “T/C = Treated/Control (MSP) × 100” value [2, 12] was 21 and the “MSP (Mean Survival Period)” value [2, 6] was 3.0 days. For the same compound, the “Surviving Mice” value [2, 6] was 0/10 and the “T/C = Treated/Control (MSP) × 100” value [2, 6] was 17.

Work on CC(C)(C)OC(=O)N1CC2CC23C1=CC(=O)c1ccccc13 (single isomer, unassigned; (+)) [(+)-N—Boc-CBI, reference compound] yielded an IC50 ([1]; natural enantiomer, 72 hours, read-out: IC50 L1210 natural) of 80 nM and an IC50 ([1]; unnatural enantiomer, 72 hours, read-out: IC50 L1210 unnatural) of 900 nM.

With O=C(Nc1ccc2[nH]c(C(=O)N3C[C@@H](CCl)c4c3cc3c5c(cccc45)C(=O)NO3)cc2c1)c1cc2ccccc2[nH]1 [Compound (+)-7, N-(2-(10-(Chloromethyl)-4-oxo-5,8,9,10-tetrahydro-4H-pyrrolo[3′,2′:5,6]naphtho[1,8-de][1,2]oxazine-8-carbonyl)-1H-indol-5-yl)-1H-indole-2-carboxamide] the “DNA alkylation after thiol activation” value (w794 DNA; incubated with 1 M L-glutathione at 37° C.) was “results in DNA alkylation; also recorded: slow DNA alkylation reaction” and the DNA alkylation (w794 DNA) was “No DNA alkylation; also recorded: failed to alkylate DNA”.

Work on COc1c(O)c2c(c3cc(C(=O)N4CCc5c4c(O)c(OC)c4[nH]c(C(=O)N6C[C@H]7CC78C6=CC(=O)c6[nH]cc(C)c68)cc54)[nH]c13)CCN2C(N)=O (stereo partly drawn) [Compound 2, CC-1065, reference compound] yielded an IC50 [1, 5] of 0.02 nM and an IC50 [1, 10] of 0.02 nM.

With CNC(=O)c1cccc2c3c(cc(O)c12)N(C(=O)c1cc2cc(NC(=O)c4cc5ccccc5[nH]4)ccc2[nH]1)CC3CCl (racemic) [Compound 19, 3-(5-(1H-Indole-2-carboxamido)-1H-indole-2-carbonyl)-1-(chloromethyl)-5-hydroxy-N-methyl-1,2-dihydrobenzo-[e]indole-6-carboxamide] the DNA alkylation (w794 DNA) was “alkylate DNA in a manner analogous to Compound (+)-4”, the “times less potent than seco-(+)-CBI-indole2” value ([1]; L1210, racemic mixture) was 2.5 times and the IC50 ([1]; Mus musculus, L1210, 72 h, read-out: IC50 L1210, tested as a racemic mixture, 72 hours) was 0.073 nM.

From patent publication US9586974B2, “Cyclic N-acyl O-amino phenol CBI derivative” (THE SCRIPPS RESEARCH LINSTITUTE, priority 2013, dated 2017)
